Assay results as given in PubChem BioAssay (NCI).
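Assay format: 96-well plates, 48-hour exposure. TGI: concentration producing complete growth inhibition.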

Columns and labels:
Assay in all cases: NCI-60 cell line screen, 48 h
TK-10 renal = test system: TK-10 renal
786-0 renal = test system: 786-0 renal
SR leukemia = test system: SR leukemia
M14 melanoma = test system: M14 melanoma
SK-OV-3 ovarian = test system: SK-OV-3 ovarian
KM12 colon = test system: KM12 colon
NCI-H522 lung = test system: NCI-H522 lung
RPMI-8226 leukemia = test system: RPMI-8226 leukemia
HL-60(TB) leukemia = test system: HL-60(TB) leukemia
UACC-257 melanoma = test system: UACC-257 melanoma
UO-31 renal = test system: UO-31 renal
K-562 leukemia = test system: K-562 leukemia
HCC-2998 colon = test system: HCC-2998 colon
SK-MEL-5 melanoma = test system: SK-MEL-5 melanoma
A549 NSCLC = test system: A549 NSCLC
HOP-92 NSCLC = test system: HOP-92 NSCLC
NCI/ADR-RES ovarian = test system: NCI/ADR-RES ovarian
CAKI-1 renal = test system: CAKI-1 renal
OVCAR-3 ovarian = test system: OVCAR-3 ovarian
NCI-H460 lung = test system: NCI-H460 lung
OVCAR-4 ovarian = test system: OVCAR-4 ovarian
DU-145 prostate = test system: DU-145 prostate
SNB-75 CNS = test system: SNB-75 CNS
A498 renal = test system: A498 renal
OVCAR-8 ovarian = test system: OVCAR-8 ovarian
SF-268 CNS = test system: SF-268 CNS
RXF 393 renal = test system: RXF 393 renal
SF-539 CNS = test system: SF-539 CNS
EKVX NSCLC = test system: EKVX NSCLC
MDA-MB-231 breast = test system: MDA-MB-231 breast
CCRF-CEM leukemia = test system: CCRF-CEM leukemia
SF-295 CNS = test system: SF-295 CNS
HCT-15 colon = test system: HCT-15 colon
ACHN renal = test system: ACHN renal
IGROV1 ovarian = test system: IGROV1 ovarian
HOP-62 NSCLC = test system: HOP-62 NSCLC
SK-MEL-28 melanoma = test system: SK-MEL-28 melanoma
COLO 205 colon = test system: COLO 205 colon
MDA-N = test system: MDA-N
SNB-19 CNS = test system: SNB-19 CNS
U251 CNS = test system: U251 CNS
NCI-H226 lung = test system: NCI-H226 lung
HT29 colon = test system: HT29 colon
SK-MEL-2 melanoma = test system: SK-MEL-2 melanoma
MALME-3M melanoma = test system: MALME-3M melanoma
HS 578T breast = test system: HS 578T breast
SN12C renal = test system: SN12C renal
T-47D breast = test system: T-47D breast
PC-3 prostate = test system: PC-3 prostate
MCF7 breast = test system: MCF7 breast
SW-620 colon = test system: SW-620 colon
HCT-116 colon = test system: HCT-116 colon
BT-549 breast = test system: BT-549 breast
MDA-MB-435 = test system: MDA-MB-435
UACC-62 melanoma = test system: UACC-62 melanoma
NCI-H23 lung = test system: NCI-H23 lung
OVCAR-5 ovarian = test system: OVCAR-5 ovarian
MOLT-4 leukemia = test system: MOLT-4 leukemia
LOX IMVI melanoma = test system: LOX IMVI melanoma

With CCOC(=O)C(C)c1nc2cc(N3CCOCC3)c(F)cc2[nH]c1=O (stereo unspecified) the TGI (TK-10 renal) was > 100 µM, the TGI (786-0 renal) was > 100 µM and the TGI (SR leukemia) was > 100 µM. For the same molecule, the TGI (M14 melanoma) was > 100 µM, the TGI (SK-OV-3 ovarian) was > 100 µM and the TGI (KM12 colon) was > 100 µM. The TGI (NCI-H522 lung) was > 100 µM, the TGI (RPMI-8226 leukemia) was > 100 µM and the TGI (HL-60(TB) leukemia) was > 100 µM. For the same molecule, the TGI (UACC-257 melanoma) was > 100 µM, the TGI (UO-31 renal) was > 100 µM and the TGI (K-562 leukemia) was > 100 µM. For the same molecule, the TGI (HCC-2998 colon) was > 100 µM, the TGI (SK-MEL-5 melanoma) was > 100 µM and the TGI (A549 NSCLC) was > 100 µM. The TGI (HOP-92 NSCLC) was > 100 µM, the TGI (NCI/ADR-RES ovarian) was > 100 µM and the TGI (CAKI-1 renal) was > 100 µM. The TGI (OVCAR-3 ovarian) was > 100 µM, the TGI (NCI-H460 lung) was > 100 µM and the TGI (OVCAR-4 ovarian) was > 100 µM. For the same molecule, the TGI (DU-145 prostate) was > 100 µM, the TGI (SNB-75 CNS) was > 100 µM and the TGI (A498 renal) was > 100 µM. The TGI (OVCAR-8 ovarian) was > 100 µM, the TGI (SF-268 CNS) was > 100 µM and the TGI (RXF 393 renal) was > 100 µM. For the same molecule, the TGI (SF-539 CNS) was > 100 µM, the TGI (EKVX NSCLC) was > 100 µM and the TGI (MDA-MB-231 breast) was > 100 µM. The TGI (CCRF-CEM leukemia) was > 100 µM, the TGI (SF-295 CNS) was > 100 µM and the TGI (HCT-15 colon) was > 100 µM. For the same molecule, the TGI (ACHN renal) was > 100 µM, the TGI (IGROV1 ovarian) was > 100 µM and the TGI (HOP-62 NSCLC) was > 100 µM. For the same molecule, the TGI (SK-MEL-28 melanoma) was > 100 µM, the TGI (COLO 205 colon) was > 100 µM and the TGI (MDA-N) was > 100 µM. For the same molecule, the TGI (SNB-19 CNS) was > 100 µM, the TGI (U251 CNS) was > 100 µM and the TGI (NCI-H226 lung) was > 100 µM. For the same molecule, the TGI (HT29 colon) was > 100 µM, the TGI (SK-MEL-2 melanoma) was > 100 µM and the TGI (MALME-3M melanoma) was > 100 µM. The TGI (HS 578T breast) was > 100 µM, the TGI (SN12C renal) was > 100 µM and the TGI (T-47D breast) was > 100 µM. The TGI (PC-3 prostate) was > 100 µM, the TGI (MCF7 breast) was > 100 µM and the TGI (SW-620 colon) was > 100 µM. The TGI (HCT-116 colon) was > 100 µM, the TGI (BT-549 breast) was > 100 µM and the TGI (MDA-MB-435) was > 100 µM. The TGI (UACC-62 melanoma) was > 100 µM, the TGI (NCI-H23 lung) was > 100 µM and the TGI (OVCAR-5 ovarian) was > 100 µM. For the same molecule, the TGI (MOLT-4 leukemia) was > 100 µM.
COc1ccc(C2Oc3ccc(Cl)cc3C=C2[N+](=O)[O-])cc1OC (stereo unspecified) showed a TGI (TK-10 renal) of 2.87 µM, a TGI (786-0 renal) of 0.871 µM and a TGI (SR leukemia) of 0.307 µM. It also gave a TGI (M14 melanoma) of 1.63 µM, a TGI (SK-OV-3 ovarian) of 6.11 µM and a TGI (KM12 colon) of 2.86 µM. The TGI (NCI-H522 lung) was 2.66 µM, the TGI (RPMI-8226 leukemia) was 0.608 µM and the TGI (HL-60(TB) leukemia) was 0.47 µM. It also gave a TGI (UACC-257 melanoma) of 4.07 µM, a TGI (UO-31 renal) of 3.47 µM and a TGI (K-562 leukemia) of 1.08 µM. For the same molecule, the TGI (HCC-2998 colon) was 3.33 µM, the TGI (SK-MEL-5 melanoma) was 2.96 µM and the TGI (A549 NSCLC) was 5.04 µM. For the same molecule, the TGI (HOP-92 NSCLC) was 4.33 µM, the TGI (NCI/ADR-RES ovarian) was 2.12 µM and the TGI (CAKI-1 renal) was 3.93 µM. The TGI (OVCAR-3 ovarian) was 2.06 µM, the TGI (NCI-H460 lung) was 5.95 µM and the TGI (OVCAR-4 ovarian) was 3.46 µM. The TGI (DU-145 prostate) was 2.97 µM, the TGI (SNB-75 CNS) was 2.45 µM and the TGI (A498 renal) was 7.36 µM. It also gave a TGI (OVCAR-8 ovarian) of 2.64 µM, a TGI (SF-268 CNS) of 5 µM and a TGI (RXF 393 renal) of 3.04 µM. For the same molecule, the TGI (SF-539 CNS) was 3.13 µM, the TGI (EKVX NSCLC) was 7.13 µM and the TGI (MDA-MB-231 breast) was 2.59 µM. The TGI (CCRF-CEM leukemia) was 0.372 µM, the TGI (SF-295 CNS) was 3.46 µM and the TGI (HCT-15 colon) was 3.09 µM. The TGI (ACHN renal) was 2.77 µM, the TGI (IGROV1 ovarian) was 3.35 µM and the TGI (HOP-62 NSCLC) was 3.12 µM. It also gave a TGI (SK-MEL-28 melanoma) of 3.58 µM, a TGI (COLO 205 colon) of 4.41 µM and a TGI (MDA-N) of 1.11 µM. For the same molecule, the TGI (SNB-19 CNS) was 5.02 µM, the TGI (U251 CNS) was 2.35 µM and the TGI (NCI-H226 lung) was 4.24 µM. For the same molecule, the TGI (SK-MEL-2 melanoma) was 3.05 µM, the TGI (MALME-3M melanoma) was 4.28 µM and the TGI (HS 578T breast) was 15.5 µM. It also gave a TGI (SN12C renal) of 2.82 µM, a TGI (T-47D breast) of 4.35 µM and a TGI (PC-3 prostate) of 2.95 µM. For the same molecule, the TGI (MCF7 breast) was 3.39 µM, the TGI (SW-620 colon) was 0.497 µM and the TGI (HCT-116 colon) was 1.62 µM. For the same molecule, the TGI (BT-549 breast) was 2.62 µM, the TGI (MDA-MB-435) was 1.21 µM and the TGI (UACC-62 melanoma) was 3.65 µM. It also gave a TGI (LOX IMVI melanoma) of 1.43 µM, a TGI (NCI-H23 lung) of 4.35 µM and a TGI (OVCAR-5 ovarian) of 3.14 µM. For the same molecule, the TGI (MOLT-4 leukemia) was 0.733 µM.
